This note sets out measurements from patent US12590066B2, “Fused-heterocyclyl-carbonohydrazonoyl dicyanide compounds and use thereof” (KOREA INSTITUTE OF SCIENCE AND TECHNOLOGY, priority 2020, dated 2026).

In data set [1] the test system is Tau-BiFC cells. Kind of data set: Cell viability (stained nuclei count) in Tau-BiFC cells. The data set is classed as cell-based. The conditions noted are these: 10 μM compound, 48 hours; Forskolin-only group = 100% cell viability. The method, then:
In order to select novel tau protein aggregation-inhibiting substances, tau-BiFC cell model, in which formation of tau oligomers in living cells is easily observed, was used. Tau-BiFC cells were aliquoted into a 384-well plate. On the next day, the cells were treated with each of the compounds prepared according to Examples 1 to 57 at concentrations of 1 μM, 3 μM, and 10 μM, together with Forskolin (at a treatment concentration of 30 μM), which is a compound inducing tau protein aggregation by activating tau phosphorylase PKA. After 48 hours, nuclei in the cells were stained using Hoechst (at a treatment concentration of 2 μg/mL), and BiFC fluorescence intensity was automatically measured using Operetta (PerkinElmer) to count stained nuclei in each well out of the entire well plate. The group treated only with Forskolin, which induces tau protein aggregation, was set to a reference point of a 100% tau protein-aggregated state, and the effects of the compounds were confirmed using the equation “BiFC fluorescence intensity due to compound synthesized according to embodiment of present invention/(fluorescence intensity of control group treated only with Forskolin inducing tau protein aggregation−fluorescence intensity of untreated control group)×100”. Furthermore, the degree of cytotoxicity induced by the newly synthesized compound was also measured based on the 100% cell viability of the group treated only with Forskolin as a reference, and the cytotoxicity value of each compound was calculated using the equation “(number of stained nuclei in group treated with compound/number of stained nuclei in group treated with Forskolin)×100”. Based on the treatment results, substances inhibiting intracellular tau protein aggregation were selected from a series of candidate groups showing a tau protein aggregation inhibition rate of 70% or more and cell viability of 100% at a compound treatment concentration of 10 μM or more. […]

For data set [2], the target named is T1, tau protein (Homo sapiens, UniProt P10636).
T1 construct: BiFC fluorescent-protein fragments (type and halves not specified); expressed in transfected cells
T1 sequence (P10636 1-441 isoform P10636-8): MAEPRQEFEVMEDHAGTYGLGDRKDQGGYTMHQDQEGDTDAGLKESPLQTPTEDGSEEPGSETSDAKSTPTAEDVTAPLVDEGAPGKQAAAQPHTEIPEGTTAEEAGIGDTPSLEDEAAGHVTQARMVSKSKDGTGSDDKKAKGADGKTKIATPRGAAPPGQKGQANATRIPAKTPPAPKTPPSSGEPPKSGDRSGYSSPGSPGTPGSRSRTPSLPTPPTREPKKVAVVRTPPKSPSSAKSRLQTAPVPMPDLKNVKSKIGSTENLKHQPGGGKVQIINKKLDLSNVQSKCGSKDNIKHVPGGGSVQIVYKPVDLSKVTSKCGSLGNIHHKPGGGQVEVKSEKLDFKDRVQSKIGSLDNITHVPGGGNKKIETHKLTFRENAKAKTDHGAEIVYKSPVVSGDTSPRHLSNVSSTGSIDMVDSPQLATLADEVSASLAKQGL
Kind of data set: Tau-BiFC cell model, inhibition of Forskolin-induced tau protein aggregation. The format is cell-based. The conditions noted are these: Forskolin 30 μM, 48 hours; for Tau BiFC in cells Response (% @10 μM): 10 μM compound, Forskolin-only group = 100% tau protein-aggregated state; for pIC50: tau-BiFC cells. The method, then: In order to select novel tau protein aggregation-inhibiting substances, tau-BiFC cell model, in which formation of tau oligomers in living cells is easily observed, was used. Tau-BiFC cells were aliquoted into a 384-well plate. On the next day, the cells were treated with each of the compounds prepared according to Examples 1 to 57 at concentrations of 1 μM, 3 μM, and 10 μM, together with Forskolin (at a treatment concentration of 30 μM), which is a compound inducing tau protein aggregation by activating tau phosphorylase PKA. After 48 hours, nuclei in the cells were stained using Hoechst (at a treatment concentration of 2 μg/mL), and BiFC fluorescence intensity was automatically measured using Operetta (PerkinElmer) to count stained nuclei in each well out of the entire well plate. The group treated only with Forskolin, which induces tau protein aggregation, was set to a reference point of a 100% tau protein-aggregated state, and the effects of the compounds were confirmed using the equation “BiFC fluorescence intensity due to compound synthesized according to embodiment of present invention/(fluorescence intensity of control group treated only with Forskolin inducing tau protein aggregation−fluorescence intensity of untreated control group)×100”. Furthermore, the degree of cytotoxicity induced by the newly synthesized compound was also measured based on the 100% cell viability of the group treated only with Forskolin as a reference, and the cytotoxicity value of each compound was calculated using the equation “(number of stained nuclei in group treated with compound/number of stained nuclei in group treated with Forskolin)×100”. Based on the treatment results, substances inhibiting intracellular tau protein aggregation were selected from a series of candidate groups showing a tau protein aggregation inhibition rate of 70% or more and cell viability of 100% at a compound treatment concentration of 10 μM or more.
In order to evaluate dose-dependent tau protein aggregation inhibition effects of the compounds selected according to Experimental Example 1 on tau protein aggregation, tau-BiFC cells were treated with the selected compounds at concentrations of 0.03 μM, […], 0.3 μM, 1 μM, 3 μM, 10 μM, and 30 μM, respectively, together with Forskolin (at a treatment concentration of 30 μM), which is a tau protein aggregation-inducing substance. After 48 hours, tau protein aggregation reaction and degrees of cytotoxicity were analyzed by observing images of the cells. IC50 and toxicity of the compounds were analyzed by way of nonlinear regression analysis of prism software (Graph Pad).

pIC50: −log10 of the molar value.

Turning to `N#CC(C#N)=NNc1ccc2cc[nH]c(=O)c2c1` [Compound 1, (1-oxo-1,2-dihydroisoquinolin-7-yl)carbonohydrazonoyl dicyanide], in data set [1], the “Cell viability (% @10 μM)” value is given as 152.9%. In addition, in data set [2], the “Tau BiFC in cells Response (% @10 μM)” value was found to be 0% and the pIC50 (commonly the IC50 on a negative log10 scale, so that one unit is a factor of ten) was 6.89.

In the case of `N#CC(C#N)=NNc1ccc2[nH]c(=O)ccc2c1` [Compound 8, (2-oxo-1,2-dihydroquinolin-6-yl)carbonohydrazonoyl dicyanide], in data set [1], the “Cell viability (% @10 μM)” value is 152.5%. For the same compound, in data set [2], the “Tau BiFC in cells Response (% @10 μM)” value came to 0% and the pIC50 is 6.37.

As to `Cn1c(=O)n(C)c2cc(NN=C(C#N)C#N)c(F)cc21` [Compound 9, (6-fluoro-1,3-dimethyl-2-oxo-2,3-dihydro-1H-benzo[d]imidazol-5-yl)carbonohydrazonoyl dicyanide], in data set [1], the “Cell viability (% @10 μM)” value is on record as 155.3%. Besides, in data set [2], the “Tau BiFC in cells Response (% @10 μM)” value is 0% and the pIC50 was 6.77.

With `Cn1c(=O)ccc2cc(NN=C(C#N)C#N)ccc21` [Compound 25, (1-methyl-2-oxo-1,2-dihydroquinolin-6-yl)carbonohydrazonoyl dicyanide], in data set [1], the “Cell viability (% @10 μM)” value is recorded as 118%. In addition, in data set [2], the “Tau BiFC in cells Response (% @10 μM)” value is recorded as −16% and the pIC50 is 7.70.

As to `Cc1cc(=O)[nH]c2ccc(NN=C(C#N)C#N)cc12` [Compound 26, (4-methyl-2-oxo-1,2-dihydroquinolin-6-yl)carbonohydrazonoyl dicyanide], in data set [1], the “Cell viability (% @10 μM)” value was found to be 120%. Also, in data set [2], the “Tau BiFC in cells Response (% @10 μM)” value is −5% and the pIC50 is 6.11.

As for `Cn1c(=O)oc2ccc(NN=C(C#N)C#N)cc21` [Compound 28, (3-methyl-2-oxo-2,3-dihydrobenzo[d]oxazol-5-yl)carbonohydrazonoyl dicyanide], in data set [1], the “Cell viability (% @10 μM)” value is reported as 134%. The “Tau BiFC in cells Response (% @10 μM)” value in data set [2] amounted to 13%.

As to `N#CC(C#N)=NNc1ccc2oc(=O)n(C(F)F)c2c1` [Compound 30, (3-(difluoromethyl)-2-oxo-2,3-dihydrobenzo[d]oxazol-5-yl)carbonohydrazonoyl dicyanide], the “Cell viability (% @10 μM)” value in data set [1] was 127%. The “Tau BiFC in cells Response (% @10 μM)” value in data set [2] came out at 36%.

For the compound `Cc1cc2c(cc1NN=C(C#N)C#N)n(C)c(=O)n2C` [Compound 31, (1,3,6-trimethyl-2-oxo-2,3-dihydro-1H-benzo[d]imidazol-5-yl)carbonohydrazonoyl dicyanide], the “Cell viability (% @10 μM)” value in data set [1] is 119%. For the same compound, the “Tau BiFC in cells Response (% @10 μM)” value in data set [2] is 47%.

Regarding `COc1cc2c(cc1NN=C(C#N)C#N)n(C)c(=O)n2C` [Compound 32, (6-methoxy-1,3-dimethyl-2-oxo-2,3-dihydro-1H-benzo[d]imidazol-5-yl)carbonohydrazonoyl dicyanide], the “Cell viability (% @10 μM)” value in data set [1] was 132%. In data set [2], the “Tau BiFC in cells Response (% @10 μM)” value is on record as 38%.

Regarding `CCn1c(=O)n(C(F)F)c2cc(NN=C(C#N)C#N)ccc21` [Compound 39, (3-(difluoromethyl)-1-ethyl-2-oxo-2,3-dihydro-1H-benzo[d]imidazol-5-yl)carbonohydrazonoyl dicyanide], the “Cell viability (% @10 μM)” value in data set [1] is listed as 106%. Further, in data set [2], the “Tau BiFC in cells Response (% @10 μM)” value was −45% and the pIC50 is 8.00.

`Cn1c(=O)n(C2CC2)c2ccc(NN=C(C#N)C#N)cc21` [Compound 40, (1-cyclopropyl-3-methyl-2-oxo-2,3-dihydro-1H-benzo[d]imidazol-5-yl)carbonohydrazonoyl dicyanide]: the “Cell viability (% @10 μM)” value in data set [1] came to 122%. In data set [2], the “Tau BiFC in cells Response (% @10 μM)” value is −38% and the negative logarithm of the IC50 (pIC50) is 7.52.

On to `CCn1c(=O)n(C2CC2)c2ccc(NN=C(C#N)C#N)cc21` [Compound 41, (1-cyclopropyl-3-ethyl-2-oxo-2,3-dihydro-1H-benzo[d]imidazol-5-yl)carbonohydrazonoyl dicyanide], for which the “Cell viability (% @10 μM)” value in data set [1] amounted to 112%. In data set [2], the “Tau BiFC in cells Response (% @10 μM)” value is listed as −54% and the pIC50 was 7.70.

In the case of `CCn1c(=O)n(C)c2ncc(NN=C(C#N)C#N)cc21` [Compound 44, (1-ethyl-3-methyl-2-oxo-2,3-dihydro-1H-imidazo[4,5-b]pyridin-6-yl)carbonohydrazonoyl dicyanide], the “Cell viability (% @10 μM)” value in data set [1] was found to be 138%. Further, the “Tau BiFC in cells Response (% @10 μM)” value in data set [2] turned out to be 10%.

For the compound `CC(C)n1c(=O)n(C)c2ncc(NN=C(C#N)C#N)cc21` [Compound 45, (1-isopropyl-3-methyl-2-oxo-2,3-dihydro-1H-imidazo[4,5-b]pyridin-6-yl)carbonohydrazonoyl dicyanide], the “Cell viability (% @10 μM)” value in data set [1] turned out to be 113%. In data set [2], the “Tau BiFC in cells Response (% @10 μM)” value is −24% and the pIC50 was 6.70.

Consider `Cn1c(=O)n(C(F)F)c2cc(NN=C(C#N)C#N)cnc21` [Compound 46, (1-(difluoromethyl)-3-methyl-2-oxo-2,3-dihydro-1H-imidazo[4,5-b]pyridin-6-yl)carbonohydrazonoyl dicyanide], for which the “Cell viability (% @10 μM)” value in data set [1] was 131%. The “Tau BiFC in cells Response (% @10 μM)” value in data set [2] was 23%.

Regarding `Cn1c(=O)n(-c2ccccc2)c2cc(NN=C(C#N)C#N)cnc21` [Compound 47, (3-methyl-2-oxo-1-phenyl-2,3-dihydro-1H-imidazo[4,5-b]pyridin-6-yl)carbonohydrazonoyl dicyanide], in data set [1], the “Cell viability (% @10 μM)” value is 117%. For the same compound, the “Tau BiFC in cells Response (% @10 μM)” value in data set [2] came to 13%.

Turning to `CCn1c(=O)n(C(C)C)c2cc(NN=C(C#N)C#N)cnc21` [Compound 49, (3-ethyl-1-isopropyl-2-oxo-2,3-dihydro-1H-imidazo[4,5-b]pyridin-6-yl)carbonohydrazonoyl dicyanide], the “Cell viability (% @10 μM)” value in data set [1] came to 139%. Also, in data set [2], the “Tau BiFC in cells Response (% @10 μM)” value is reported as −34% and the pIC50 was 7.30.

Take `CCn1c(=O)n(C(F)F)c2cc(NN=C(C#N)C#N)cnc21` [Compound 50, (1-(difluoromethyl)-3-ethyl-2-oxo-2,3-dihydro-1H-imidazo[4,5-b]pyridin-6-yl)carbonohydrazonoyl dicyanide]: the “Cell viability (% @10 μM)” value in data set [1] came to 119%. For the same compound, the “Tau BiFC in cells Response (% @10 μM)” value in data set [2] is 2%.

`Cn1c(=O)n(C2CC2)c2ncc(NN=C(C#N)C#N)cc21` [Compound 51, (3-cyclopropyl-1-methyl-2-oxo-2,3-dihydro-1H-imidazo[4,5-b]pyridin-6-yl)carbonohydrazonoyl dicyanide]: in data set [1], the “Cell viability (% @10 μM)” value is listed as 137%. For the same compound, in data set [2], the “Tau BiFC in cells Response (% @10 μM)” value was −11% and the pIC50 was 6.18.

For `CCn1c(=O)n(C2CC2)c2ncc(NN=C(C#N)C#N)cc21` [Compound 52, (3-cyclopropyl-1-ethyl-2-oxo-2,3-dihydro-1H-imidazo[4,5-b]pyridin-6-yl)carbonohydrazonoyl dicyanide], the “Cell viability (% @10 μM)” value in data set [1] is 133%. In addition, in data set [2], the “Tau BiFC in cells Response (% @10 μM)” value is listed as −30% and the pIC50 is 6.70.

For the compound `CC(C)n1c(=O)n(C)c2cc(NN=C(C#N)C#N)cnc21` [Compound 54, (3-isopropyl-1-methyl-2-oxo-2,3-dihydro-1H-imidazo[4,5-b]pyridin-6-yl)carbonohydrazonoyl dicyanide], the “Cell viability (% @10 μM)” value in data set [1] is 118%. Besides, in data set [2], the “Tau BiFC in cells Response (% @10 μM)” value was −38% and the pIC50 was 6.52.
